Data taken from US20250205256A1 (GH RESEARCH IRELAND LIMITED, priority 2022, published 2025).
Values joined by “and” are separate entries in the source; they are usually repeats but may differ in a detail not shown here. Equal entries are not always repeated.

Experiments:
[1] = system: patients with treatment-resistant major depressive disorder (TRD); experiment: Phase 1/2 clinical trial of inhaled 5-MeO-DMT in TRD: MADRS; type: in vivo, human; details: for mean MADRS change from baseline at day seven / mean MADRS change from baseline at day seven, percent: n=4
Source text: Patients were assigned to different groups.
This trial was designed in two parts.

[2] = system: patient with postpartum depression (PPD); experiment: Clinical trial of inhaled 5-MeO-DMT in postpartum depression: Barkin Index of Maternal Functioning (BIMF); type: in vivo, human; details: PPD n=1
Source text: Maternal functioning can, for instance, be assessed using the Barkin Index of Maternal Functioning (BIMF). This index was designed to measure functioning in the year after childbirth. The BIMF is a 20-item self-report measure of functioning. Each item is assigned a score between 0 and 6 so that the maximum total score is 120. The higher the score, the better maternal functioning is rated.
The BIMF identifies the key functional domains of a mother during the postnatal period as: self-care, infant care, mother-child interaction, psychological wellbeing of the mother, social support, management, and adjustment.
The patient completed all planned visit days.

Q: Which “MADRS Concentration Difficulties improvement” value ([1]; IDR n=8 sum, Day 1 vs baseline) does the source give for `COc1ccc2[nH]cc(CCN(C)C)c2c1` [5-MeO-DMT] here?
A: The value was 29.

Q: And the “MADRS Inability to Feel improvement” value ([1]; IDR n=8 sum, Day 1 vs baseline)?
A: Its value is 34.

Q: And the “MADRS Inner Tension improvement” value ([1]; IDR n=8 sum, Day 1 vs baseline)?
A: Its value is 20.

Q: What about the “MADRS Lassitude improvement” value ([1]; IDR n=8 sum, Day 1 vs baseline) of the same compound?
A: Its value is 22.

Q: And the “MADRS Pessimistic Thoughts improvement” value ([1]; IDR n=8 sum, Day 1 vs baseline)?
A: The value was 24.

Q: What about the “MADRS Reduced Sleep improvement” value ([1]; IDR n=8 sum, Day 1 vs baseline) of the same compound?
A: The value was 13.

Q: And the “MADRS Reduced Sleep percentage improvement” value ([1]; IDR n=8 sum, Day 1 vs baseline)?
A: Its value is 52.00%.

Q: And the “MADRS Suicidal Thoughts improvement” value ([1]; IDR n=8 sum, Day 1 vs baseline)?
A: Its value is 10.

Q: What about the “MADRS Suicidal Thoughts score” value ([1]; IDR n=8 sum, Day 7, baseline 11) of the same compound?
A: The value was 3.

Q: And the “MADRS Reduced Sleep score” value ([1]; IDR n=8 sum, Day 7, baseline 25)?
A: Its value is 9.

Q: What about the “MADRS Inner Tension score” value ([1]; IDR n=8 sum, Day 7, baseline 26) of the same compound?
A: The value was 12.

Q: And the “MADRS Lassitude score” value ([1]; IDR n=8 sum, Day 7, baseline 27)?
A: The value was 3.

Q: What about the “MADRS Pessimistic Thoughts score” value ([1]; IDR n=8 sum, Day 7, baseline 28) of the same compound?
A: The value was 3.

Q: What about the “MADRS Concentration Difficulties score” value ([1]; IDR n=8 sum, Day 7, baseline 30) of the same compound?
A: The value was 9.

Q: And the “MADRS Inability to Feel score” value ([1]; IDR n=8 sum, Day 7, baseline 36)?
A: The value was 6.

Q: And the “MADRS Concentration Difficulties improvement” value ([1]; IDR n=8 sum, Day 7 vs baseline)?
A: The value was 21.

Q: What about the “MADRS Inability to Feel improvement” value ([1]; IDR n=8 sum, Day 7 vs baseline) of the same compound?
A: Its value is 30.

Q: And the “MADRS Inner Tension improvement” value ([1]; IDR n=8 sum, Day 7 vs baseline)?
A: The value was 14.

Q: And the “MADRS Lassitude improvement” value ([1]; IDR n=8 sum, Day 7 vs baseline)?
A: The value was 24.

Q: What about the “MADRS Pessimistic Thoughts improvement” value ([1]; IDR n=8 sum, Day 7 vs baseline) of the same compound?
A: Its value is 25.

Q: And the “MADRS Reduced Sleep improvement” value ([1]; IDR n=8 sum, Day 7 vs baseline)?
A: The value was 16.

Q: What about the “MADRS Reduced Sleep percentage improvement” value ([1]; IDR n=8 sum, Day 7 vs baseline) of the same compound?
A: The value was 64.00%.

Q: And the “MADRS Suicidal Thoughts improvement” value ([1]; IDR n=8 sum, Day 7 vs baseline)?
A: Its value is 8.

Q: What about the “mean MADRS change from baseline at day seven” value ([1]; Part A, 12 mg) of the same compound?
A: Its value is −21.0.

Q: And the “mean MADRS change from baseline at day seven, percent” value ([1]; Part A, 12 mg)?
A: Its value is −65%.

Q: And the “patients with MADRS remission (total score ≤10) on day seven” value (“patients with MADRS remission” below) ([1]; Part A, 12 mg, two of four patients)?
A: The value was 50%.

Q: What about the “mean MADRS change from baseline at day seven” value ([1]; Part A, 18 mg) of the same compound?
A: Its value is −12.8.

Q: What about the “mean MADRS change from baseline at day seven, percent” value ([1]; Part A, 18 mg) of the same compound?
A: Its value is −41%.

Q: And the “further patients with MADRS clinical response on day seven” value ([1]; Part A, 18 mg, one further patient of four)?
A: The value was 25%.

Q: What about the “patients with MADRS remission” value ([1]; Part A, 18 mg, one of four patients) of the same compound?
A: The value was 25%.

Q: What about the “patients with MADRS remission” value ([1]; Part B, IDR, seven of eight patients, p<0.0001) of the same compound?
A: Its value is 87.5%.

Q: And the “BIMF total score improvement, percent” value ([2]; Day 7, from 92 to 105)?
A: The value was 14%.

Q: And the “BIMF item 16 (I worry about how other people judge me (as a mother)) score” value ([2]; Day 7, Day 0 score 3)?
A: The value was 5.

Q: What about the “BIMF item 10 (I trust my own feelings (instincts) when taking care of my baby) score” value ([2]; Day 7, Day 0 score 5) of the same compound?
A: The value was 6.

Q: What about the “BIMF functional domain Adjustment score” value ([2]; Day 7, Day 0 score 5, maximum 12) of the same compound?
A: Its value is 6.

Q: And the “BIMF functional domain Self Care score” value ([2]; Day 7, Day 0 score 9, maximum 18)?
A: Its value is 13.

Q: What about the “BIMF functional domain Infant Care score” value ([2]; Day 7, Day 0 score 12, maximum 12) of the same compound?
A: Its value is 12.

Q: What about the “BIMF functional domain Mother-Child Interaction score” value ([2]; Day 7, Day 0 score 15, maximum 18) of the same compound?
A: Its value is 17.

Q: What about the “BIMF functional domain Social Support score” value ([2]; Day 7, Day 0 score 17, maximum 18) of the same compound?
A: The value was 18.

Q: And the “BIMF functional domain Management score” value ([2]; Day 7, Day 0 score 28, maximum 36)?
A: Its value is 33.

Q: What about the “BIMF functional domain Psychological Well-being score” value ([2]; Day 7, Day 0 score 44, maximum 60) of the same compound?
A: Its value is 53.

Q: And the “BIMF TOTAL Δ (Day 7)” value ([2]; Day 7 vs Day 0)?
A: The value was 13.

Q: And the “BIMF functional domain Adjustment % Improvement” value ([2]; Day 7 vs Day 0)?
A: Its value is 20.00%.

Q: What about the “BIMF functional domain Adjustment Δ (Day 7)” value ([2]; Day 7 vs Day 0) of the same compound?
A: The value was 1.

Q: What about the “BIMF functional domain Infant Care % Improvement” value ([2]; Day 7 vs Day 0) of the same compound?
A: Its value is 0.00%.

Q: What about the “BIMF functional domain Infant Care Δ (Day 7)” value ([2]; Day 7 vs Day 0) of the same compound?
A: Its value is 0.

Q: What about the “BIMF functional domain Management % Improvement” value ([2]; Day 7 vs Day 0) of the same compound?
A: Its value is 18% and 17.86%.

Q: What about the “BIMF functional domain Management Δ (Day 7)” value ([2]; Day 7 vs Day 0) of the same compound?
A: The value was 5.

Q: And the “BIMF functional domain Mother-Child Interaction % Improvement” value ([2]; Day 7 vs Day 0)?
A: The value was 13.33%.

Q: What about the “BIMF functional domain Mother-Child Interaction Δ (Day 7)” value ([2]; Day 7 vs Day 0) of the same compound?
A: The value was 2.

Q: And the “BIMF functional domain Psychological Well-being % Improvement” value ([2]; Day 7 vs Day 0)?
A: Its value is 20.45%.

Q: What about the “BIMF functional domain Psychological Well-being Δ (Day 7)” value ([2]; Day 7 vs Day 0) of the same compound?
A: The value was 9.

Q: And the “BIMF functional domain Self Care % Improvement” value ([2]; Day 7 vs Day 0)?
A: The value was 44% and 44.44%.

Q: What about the “BIMF functional domain Self Care Δ (Day 7)” value ([2]; Day 7 vs Day 0) of the same compound?
A: The value was 4.

Q: What about the “BIMF functional domain Social Support % Improvement” value ([2]; Day 7 vs Day 0) of the same compound?
A: Its value is 5.88%.

Q: What about the “BIMF functional domain Social Support Δ (Day 7)” value ([2]; Day 7 vs Day 0) of the same compound?
A: The value was 1.

Q: What about the “BIMF item 1 (I am a good mother) Δ (Day 7)” value ([2]; Day 7 vs Day 0) of the same compound?
A: The value was 0.

Q: And the “BIMF item 2 (I feel rested) Δ (Day 7)” value ([2]; Day 7 vs Day 0)?
A: The value was 2.

Q: What about the “BIMF item 3 (comfortable with the way I've chosen to feed my baby) Δ (Day 7)” value ([2]; Day 7 vs Day 0) of the same compound?
A: The value was 0.

Q: And the “BIMF item 4 (My baby and I understand each other) Δ (Day 7)” value ([2]; Day 7 vs Day 0)?
A: Its value is 0.

Q: What about the “BIMF item 5 (able to relax and enjoy time with my baby) Δ (Day 7)” value ([2]; Day 7 vs Day 0) of the same compound?
A: Its value is 1.

Q: And the “BIMF item 6 (people I can trust to care for my baby when I need a break) Δ (Day 7)” value ([2]; Day 7 vs Day 0)?
A: Its value is 0.

Q: What about the “BIMF item 8 (getting enough adult interaction) Δ (Day 7)” value ([2]; Day 7 vs Day 0) of the same compound?
A: The value was 0.

Q: And the “BIMF item 9 (getting enough encouragement from other people) Δ (Day 7)” value ([2]; Day 7 vs Day 0)?
A: The value was 1.

Q: And the “BIMF item 10 (I trust my own feelings (instincts) when taking care of my baby) Δ (Day 7)” value ([2]; Day 7 vs Day 0)?
A: The value was 1.

Q: And the “BIMF item 11 (a little time each week to do something for myself) Δ (Day 7)” value ([2]; Day 7 vs Day 0)?
A: Its value is 1.

Q: And the “BIMF item 12 (taking good care of my baby's physical needs) Δ (Day 7)” value ([2]; Day 7 vs Day 0)?
A: Its value is 0.

Q: And the “BIMF item 13 (taking good care of my physical needs) Δ (Day 7)” value ([2]; Day 7 vs Day 0)?
A: Its value is 1.

Q: What about the “BIMF item 14 (good decisions about my baby's health and well being) Δ (Day 7)” value ([2]; Day 7 vs Day 0) of the same compound?
A: Its value is 0.

Q: What about the “BIMF item 15 (My baby and I are getting into a routine) Δ (Day 7)” value ([2]; Day 7 vs Day 0) of the same compound?
A: The value was 1.

Q: What about the “BIMF item 16 (I worry about how other people judge me (as a mother)) Δ (Day 7)” value ([2]; Day 7 vs Day 0) of the same compound?
A: The value was 2.

Q: What about the “BIMF item 17 (able to take care of my baby and my other responsibilities) Δ (Day 7)” value ([2]; Day 7 vs Day 0) of the same compound?
A: The value was 0.

Q: What about the “BIMF item 18 (Anxiety or worry often interferes with my mothering ability) Δ (Day 7)” value ([2]; Day 7 vs Day 0) of the same compound?
A: Its value is 3.

Q: And the “BIMF item 19 (getting better at taking care of my baby) Δ (Day 7)” value ([2]; Day 7 vs Day 0)?
A: Its value is 1.

Q: What about the “BIMF item 20 (satisfied with the job I am doing as a new mother) Δ (Day 7)” value ([2]; Day 7 vs Day 0) of the same compound?
A: Its value is −1.
